According to ChEMBL document CHEMBL5029181, “Synthesis and evaluation of potent novel inhibitors of human sulfide:quinone oxidoreductase” (Bioorg Med Chem Lett, 2021):
In brackets after ≈: the same amount, converted by molar mass.

Experiments:
[1] = molecular target: Sulfide:quinone oxidoreductase, mitochondrial (Homo sapiens, UniProt Q9Y6N5); assay: Inhibition of human SQOR
[2] = Half life in mouse at 10 mg/kg, ip; type: ADME, organism-based; conditions: in vivo
[3] = AUClast in mouse at 10 mg/kg, ip; type: ADME, organism-based; design: time 0 - last, route intraperitoneal, dose 10 mg/kg; conditions: in vivo
[4] = Protein binding in mouse plasma; type: ADME, cell-free; conditions: read-out: PPB (converted)
[5] = Permeability of the compound from basolateral to apical side in human Caco-2 cells; type: ADME, cell-based; conditions: read-out: permeability
[6] = Aqueous solubility of the compound at pH 7; conditions: buffer
[7] = Permeability of the compound from apical to basolateral side in human Caco-2 cells; type: ADME, cell-based; conditions: read-out: permeability

Sequence of Sulfide:quinone oxidoreductase, mitochondrial (Q9Y6N5 whole entry): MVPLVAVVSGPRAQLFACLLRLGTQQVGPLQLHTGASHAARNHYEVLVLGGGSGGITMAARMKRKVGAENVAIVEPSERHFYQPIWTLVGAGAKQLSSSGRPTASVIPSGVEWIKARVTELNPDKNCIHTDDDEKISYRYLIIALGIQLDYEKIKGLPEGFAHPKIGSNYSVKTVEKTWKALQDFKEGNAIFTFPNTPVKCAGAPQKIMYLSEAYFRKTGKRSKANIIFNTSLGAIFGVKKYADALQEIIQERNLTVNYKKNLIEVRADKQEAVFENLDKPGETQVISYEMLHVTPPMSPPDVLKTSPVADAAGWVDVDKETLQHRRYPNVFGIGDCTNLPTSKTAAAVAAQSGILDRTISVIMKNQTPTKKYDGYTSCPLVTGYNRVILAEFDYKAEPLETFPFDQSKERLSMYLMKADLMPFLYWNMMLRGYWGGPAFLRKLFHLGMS

| SMILES | IC50 [1] [nM] | also measured |
| --- | --- | --- |
| C=CCOc1nc(-c2ccccn2)cc(-c2ccc(F)cc2)c1C#N | 5.5 |  |
| COc1nc(-c2ccccn2)cc(-c2ccc(F)cc2)c1C(N)=O | 16200 |  |
| COc1nc(-c2ccccn2)cc(-c2ccc(F)cc2)c1C#N | 14 |  |
| CCSc1nc(-c2ccccc2)cc(-c2ccccc2)c1C#N | 132 |  |
| COc1cccc(-c2cc(-c3ccc(F)cc3)c(C#N)c(OC)n2)c1 | 108 |  |
| COc1nc(-c2ccccc2)cc(-c2ccc(Cl)cc2Cl)c1C#N | > 100000 |  |
| COc1nc(-c2cccnc2)cc(-c2ccc(F)cc2)c1C#N | 213 |  |
| COc1nc(-c2ccccc2)cc(-c2ccccc2)c1C#N | 53 |  |
| COc1ccc(-c2cc(-c3ccc(F)cc3)c(C#N)c(OC)n2)cc1 | 1360 |  |
| COc1nc(-c2ncccc2C)cc(-c2ccc(N)cc2)c1C#N |  | half-life [2]: 1.13 h; AUC(0-t) [3]: 1080 ng·h/mL; fraction unbound [4]: 0.022 |
| COc1ccccc1-c1cc(-c2ccc(F)cc2)c(C#N)c(OC)n1 | 75 |  |
| COc1nc(-c2ccccc2)cc(-c2ccncc2)c1C#N | 541 |  |
| COc1nc(-c2ncccc2C)cc(-c2ccc(F)cc2)c1C#N | 8.7 | Papp B→A [5]: 0.769 ×10⁻⁶ cm/s; half-life [2]: 5.96 h; solubility [6]: 0.013 µM (≈ 4.15 ng/mL); AUC(0-t) [3]: 42 ng·h/mL; fraction unbound [4]: 0.0036; Papp A→B [7]: 0.455 ×10⁻⁶ cm/s |
| N#Cc1c(-c2ccccc2)cc(-c2ccccc2)nc1OCc1ccccc1 | 100 |  |
| COc1nc2c(c(-c3ccccc3)c1C#N)Cc1ccccc1-2 | 2.1 |  |
| COc1nc(-c2ccccc2)cc(-c2ccc(F)cc2)c1C#N | 25 |  |
| COCCOc1nc(-c2ccccc2)cc(-c2ccc(F)cc2)c1C#N | 123 |  |
| COc1nc(-c2ccccn2)cc(C(C)(C)C)c1C#N | 850 |  |
| COc1nc(-c2ccncc2)cc(-c2ccc(F)cc2)c1C#N | 17400 |  |
| COc1nc(C(C)(C)C)cc(-c2ccc(F)cc2)c1C#N | 153 |  |
| COc1nc(-c2ccccc2)cc(-c2ccc(Cl)cc2)c1C#N | 252 |  |
| Cc1cccnc1-c1cc(-c2ccc(F)cc2)c(C#N)c(OCc2cccnc2)n1 | 36 |  |
